Measured values published in patent US20240376163A1, “PEPTIDE FOR INHIBITING CALCINEURIN AND USE THEREOF” (Seoul National University R&DB Foundation, priority 2023, published 2024).

System: Jurkat T cells
Assay: mRNA sequencing of activated Jurkat T cells
Type: cell-based, human

## PEITVTPPTP [CABIN1-L-1-2]
P + I
  CRIM1 FPKM: 0.333 FPKM
  CRTAM FPKM: 9.51 FPKM
  CSF1 FPKM: 2.594 FPKM
  CSF2 FPKM: 0.314 FPKM
  CST7 FPKM: 3.175 FPKM
  CXCL8 FPKM: 3.327 FPKM
  CXCR3 FPKM: 1.803 FPKM
  DSTYK FPKM: 3.595 FPKM
  FBXO34 FPKM: 18.386 FPKM
  FMNL2 FPKM: 3.019 FPKM
  FOSL2 FPKM: 2.362 FPKM
  FOXO1 FPKM: 3.736 FPKM
  FXYD5 FPKM: 42.856 FPKM
  FYN FPKM: 15.512 FPKM
  GFOD1 FPKM: 6.312 FPKM
  GRK5 FPKM: 8.975 FPKM
  GTDC1 FPKM: 5.144 FPKM
  IL2 FPKM: 12.964 FPKM
  IL3 FPKM: 6.298 FPKM
  IL21R FPKM: 5.255 FPKM
  IL21R-AS1 FPKM: 3.991 FPKM
  IQCJ-SCHIP1 FPKM: 1.234 FPKM
  IRF4 FPKM: 2.092 FPKM
  IRF8 FPKM: 1.914 FPKM
  ISM1 FPKM: 3.737 FPKM
  JAK2 FPKM: 8.45 FPKM
  KCNK1 FPKM: 13.139 FPKM
  KCNK5 FPKM: 4.904 FPKM
  LAMP3 FPKM: 9.828 FPKM
  LAX1 FPKM: 7.578 FPKM
  LIF FPKM: 0.231 FPKM
  LOC729603 FPKM: 3.329 FPKM
  LRRC8B FPKM: 4.298 FPKM
  LTBP4 FPKM: 9.568 FPKM
  MAP2K3 FPKM: 43.237 FPKM
  MIR6775 FPKM: 21.57 FPKM
  MIR6821 FPKM: 25.116 FPKM
  MYO1D FPKM: 5.995 FPKM
  NDFIP1 FPKM: 24.432 FPKM
  NFATC1 FPKM: 3.916 FPKM
  NPDC1 FPKM: 5.64 FPKM
  NR4A2 FPKM: 0.356 FPKM
  NTRK1 FPKM: 1.657 FPKM
  PAM FPKM: 1.934 FPKM
  PDGFA FPKM: 8.169 FPKM
  PELI1 FPKM: 8.465 FPKM
  PHACTR2 FPKM: 2.791 FPKM
  PHEX FPKM: 0.786 FPKM
  PIM3 FPKM: 72.895 FPKM
  PKIA FPKM: 18.138 FPKM
  PLK3 FPKM: 7.036 FPKM
  PLS3 FPKM: 0.37 FPKM
  POU2AF1 FPKM: 2.971 FPKM
  PPIF FPKM: 106.533 FPKM
  PTPN6 FPKM: 20.806 FPKM
  PTPN22 FPKM: 5.119 FPKM
  RDH10 FPKM: 5.524 FPKM
  REL FPKM: 5.699 FPKM
  RGS16 FPKM: 5.595 FPKM
  SCHIP1 FPKM: 1.333 FPKM
  SERPINB2 FPKM: 14.103 FPKM
  SHC4 FPKM: 0.686 FPKM
  SLAMF1 FPKM: 0.275 FPKM
  SLC35E4 FPKM: 1.517 FPKM
  SORBS1 FPKM: 0.511 FPKM
  SPRY1 FPKM: 4.901 FPKM
  STAT5A FPKM: 3.055 FPKM
  TAGAP FPKM: 8.731 FPKM
  TBC1D4 FPKM: 13.191 FPKM
  TBC1D20 FPKM: 18.427 FPKM
  TDRD9 FPKM: 1.888 FPKM
  TIAM2 FPKM: 0.301 FPKM
  TM4SF1 FPKM: 0.907 FPKM
  TNFRSF4 FPKM: 11.916 FPKM
  TNFSF9 FPKM: 2.651 FPKM
  TNFSF14 FPKM: 4.255 FPKM
  TNS3 FPKM: 1.418 FPKM
  VAMP1 FPKM: 14.752 FPKM
  XCL1 FPKM: 1.144 FPKM
  XCL2 FPKM: 2.074 FPKM
  ZNF704 FPKM: 0.183 FPKM
  ZNF827 FPKM: 1.372 FPKM
P+I
  ABCB10 FPKM: 9.751 FPKM
  ACTG1 FPKM: 799.981 FPKM
  ADAM19 FPKM: 4.257 FPKM
  ADD3 FPKM: 9.536 FPKM
  ADORA2B FPKM: 6.969 FPKM
  AGO2 FPKM: 14.51 FPKM
  AIM1 FPKM: 27.486 FPKM
  APOBEC3A_B FPKM: 14.665 FPKM
  APOBEC3B FPKM: 59.895 FPKM
  APOBEC3C FPKM: 14.323 FPKM
  APOBEC3D FPKM: 8.981 FPKM
  APOL2 FPKM: 102.003 FPKM
  APOL6 FPKM: 46.762 FPKM
  AQP3 FPKM: 52.98 FPKM
  ARAP2 FPKM: 13.458 FPKM
  ARC FPKM: 10.186 FPKM
  ARHGAP23 FPKM: 1.985 FPKM
